Test results: ChEMBL document CHEMBL1158520, “Aryl- and heteroaryl-substituted aminobenzo[a]quinolizines as dipeptidyl peptidase IV inhibitors” (Bioorg Med Chem Lett, 2010)

How the values were obtained:
[1] = Oral bioavailability in Wistar rat at 3 mg/kg; format: ADME, organism-based; conditions: in vivo
Dipeptidyl peptidase 4 = Dipeptidyl peptidase 4 (Homo sapiens, UniProt P27487); assay: Inhibition of DPP4
[2] = Ratio of drug level in brain to plasma of Wistar rat; format: ADME
[3] = Half life in Wistar rat at 1 mg/kg, iv; format: ADME, organism-based; set-up: dose 1 mg/kg, route intravenous; conditions: in vivo
[4] = Volume of distribution at steady state in Wistar rat at 1 mg/kg, iv; format: ADME, organism-based; set-up: dose 1 mg/kg, route intravenous; conditions: in vivo, read-out: Vdss
Rattus norvegicus [5] = assay: Reduction of blood glucose level in po dosed Zucker fatty (fa/fa) rat administered 2 hrs before glucose challenge measured after 40 mins glucose challenge by oral glucose tolerance test; format: functional, organism-based
[6] = Clearance in Wistar rat at 1 mg/kg, iv; format: ADME, organism-based; set-up: dose 1 mg/kg, route intravenous; conditions: in vivo
Phospholipidosis = assay: Minimal effective concentration for in vitro drug-induced phospholipidosis in fibroblasts; format: ADME, cell-based; conditions: fibroblast
[7] = Distribution coefficient, log D at pH 7.4; format: physicochemical; conditions: octanol/water
Rattus norvegicus [8] = assay: Reduction of blood glucose level in Zucker fatty (fa/fa) rat at 0.3 mg/kg, po administered 2 hrs before glucose challenge measured after 40 mins glucose challenge by oral glucose tolerance test; format: functional; set-up: scale not given: the % may be the effect or the level left
[9] = Mutagenic activity in Salmonella Typhimurium; format: toxicity; conditions: salmonella enterica subsp. enterica serovar typhimurium

Chain of Dipeptidyl peptidase 4 (P27487 whole entry): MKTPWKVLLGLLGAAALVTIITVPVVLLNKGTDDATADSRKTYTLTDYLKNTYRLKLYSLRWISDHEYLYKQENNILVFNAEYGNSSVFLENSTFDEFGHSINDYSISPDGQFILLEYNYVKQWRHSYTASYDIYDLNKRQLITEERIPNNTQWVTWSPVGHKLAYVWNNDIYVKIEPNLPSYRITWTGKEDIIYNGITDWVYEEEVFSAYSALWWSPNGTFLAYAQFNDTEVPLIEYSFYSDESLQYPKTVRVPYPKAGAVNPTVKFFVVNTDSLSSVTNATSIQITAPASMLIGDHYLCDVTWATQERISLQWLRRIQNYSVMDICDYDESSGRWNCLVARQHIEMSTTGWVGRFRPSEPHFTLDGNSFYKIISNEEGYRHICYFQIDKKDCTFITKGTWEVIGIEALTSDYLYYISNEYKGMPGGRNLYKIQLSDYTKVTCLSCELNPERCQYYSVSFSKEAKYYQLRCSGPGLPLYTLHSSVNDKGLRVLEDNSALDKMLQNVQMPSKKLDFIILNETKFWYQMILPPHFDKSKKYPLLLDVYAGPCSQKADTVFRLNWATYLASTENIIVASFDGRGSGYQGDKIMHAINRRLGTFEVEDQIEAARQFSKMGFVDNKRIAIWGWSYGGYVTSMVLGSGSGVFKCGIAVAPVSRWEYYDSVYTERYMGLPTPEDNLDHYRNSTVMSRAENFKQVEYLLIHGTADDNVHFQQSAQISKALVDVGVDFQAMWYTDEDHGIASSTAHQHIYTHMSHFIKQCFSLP

IC50 (Dipeptidyl peptidase 4) [µM]	logD [7]	SMILES	other results
0.011	–	COc1cc2c(cc1OC)[C@@H]1C[C@H](N)[C@@H](c3cc(C)ccn3)CN1CC2	bioavailability [1]: 50%; Kp [2]: 0.7; half-life [3]: 1.4 h; Vd [4]: 12 L/kg; Activity (Rattus norvegicus [5]): Dose-dependent effect; clearance [6]: 118 mL/min/kg
53	–	COc1cc2c(cc1OC)[C@H]1C[C@@H](N)[C@H](c3cc(C)ccn3)CN1CC2	–
–	1.3	COc1cc2c(cc1OC)[C@@H]1CC(N)[C@@H](c3cccc(C)c3)CN1CC2 (mixture of isomers)	bioavailability [1]: 56%; Kp [2]: 5.8; half-life [3]: 6.9 h; Phospholipidosis_MEC (Phospholipidosis): 2.5 µM; Vd [4]: 42 L/kg; Activity (Rattus norvegicus [8]): 41%; clearance [6]: 87 mL/min/kg
0.0012	0.1	COc1cc2c(cc1OC)[C@@H]1CC(N)[C@@H](c3cc(CF)ccn3)CN1CC2 (mixture of isomers)	Activity [9]: Toxic
0.019	0.3	COc1cc2c(cc1OC)[C@@H]1CC(N)[C@@H](c3cc(C)ccn3)CN1CC2 (mixture of isomers)	Phospholipidosis_MEC (Phospholipidosis): 15 µM

Second part, the compound before the results:

SMILES	IC50 (Dipeptidyl peptidase 4) [µM]	logD [7]	other results
COc1cc2c(cc1OC)[C@@H]1CC(N)[C@@H](c3ccccc3)CN1CC2 (mixture of isomers)	–	0.8	Phospholipidosis_MEC (Phospholipidosis): 5 µM
COc1cc2c(cc1OC)[C@@H]1CC(N)[C@@H](c3cccc(Cl)c3)CN1CC2 (mixture of isomers)	–	1.7	–
COc1cc2c(cc1OC)[C@@H]1CC(N)[C@@H](c3cccc(C4CC4)c3)CN1CC2 (mixture of isomers)	0.038	1.8	–
COc1cc2c(cc1OC)[C@@H]1CC(N)[C@@H](c3cccc(C(C)C)c3)CN1CC2 (mixture of isomers)	5.5	2	–
COc1cc2c(cc1OC)[C@@H]1CC(N)[C@@H](c3cccc(CF)c3)CN1CC2 (mixture of isomers)	–	1.6	–
CCc1cccc([C@H]2CN3CCc4cc(OC)c(OC)cc4[C@@H]3CC2N)c1 (mixture of isomers)	0.061	1.7	–
COc1cc2c(cc1OC)[C@@H]1CC(N)[C@@H](c3cc(C)ccc3C)CN1CC2 (mixture of isomers)	0.0017	1.6	–
